Laboratory results reported in patent publication US4418068A, “Antiestrogenic and antiandrugenic benzothiophenes” (Eli Lilly and Company, priority 1981, dated 1983).

How the values were obtained:
[1] = system: estrogenic response; experiment: Estrogenic Response Test, immature rats (uterine weight); type: in vivo, immature 40-45 g. female rats
Method: (§1) The first test reported below is used to determine the estrogenic potency of compounds. It is well known that many compounds having antiestrogenic activity also, typically, have estrogenic activity. As has been explained, estrogenic activity is a liability in an antiestrogen, and thus it is important to identify antiestrogens having a minimum amount of estrogenic activity. This test was conducted with immature 40-45 g. female rats, immature 11-13 g. mice, and adult ovariectomized mice. The rats were tested in groups of six, and mice in groups of ten. All of the laboratory animals were from standardized strains and were equilibrated to the laboratory before the test started. Each test was begun by administering the test compound daily for three days, as a subcutaneous injection or by oral gavage, as indicated below in the reports of individual experiments. Untreated control animals were included in each experiment, along with animals to which estradiol was administered subcutaneously. The estradiol-treated animals provided positive controls, showing the physiological effect of a potent estrogen on the individual group of animals used in the experiment. […] The test animals were treated for three days and sacrificed on the fourth day, and the uteri were removed, freed of extraneous tissue, and blotted with paper towels. The uteri were weighed to the nearest 0.1 mg. The tables below report the results of representative experiments. The doses of estradiol and of the compound of this invention are given as the total of the three daily doses. The uterine weights are given, in mg., as the means of all of the organ weights of the animals in a group. Compounds are referred to by their example numbers above.

[2] = system: estrogenic response; experiment: Estrogenic Response Test, immature mice (uterine weight); type: in vivo, immature 11-13 g. mice; conditions: Experiment D, s.c.
Method: as §1

[3] = system: estrogenic response of estradiol; experiment: Antiestrogenic Test, immature mice (uterine weight); type: in vivo; conditions: Experiment B, s.c. + estradiol 0.3 mcg.
Method: (§2) This test was conducted with immature 40-45 g. female rats, immature 11-13 g. mice, and adult ovariectomized mice. The rats were tested in groups of six, and mice in groups of ten. All of the laboratory animals were from standardized strains and were equilibrated to the laboratory before the test started. Each test was begun by administering the test compound daily for three days, as a subcutaneous injection or by oral gavage, as indicated below in the reports of individual experiments.
(§3) The test animals were treated for three days and sacrificed on the fourth day, and the uteri were removed, freed of extraneous tissue, and blotted with paper towels. The uteri were weighed to the nearest 0.1 mg.
(§4) The uterine weights are given, in mg., as the means of all of the organ weights of the animals in a group. Compounds are referred to by their example numbers above.
(§5) The same standardized types of laboratory animals which were used in the experiments described above were also used in these experiments. […] Untreated control animals were used in each experiment. […] The dosage and sacrifice schedule, and the method of determining uterine weights and reporting data, were the same as the methods described above under Test 1.

[4] = system: estrogenic response of estradiol; experiment: Antiestrogenic Test, immature rats (uterine weight); type: in vivo
Method: as §2, §3, §4, §5

[5] = system: estrogenic response; experiment: Regression Test: reversal of established estrogenic response (uterine weight); type: in vivo, immature rats; conditions: estradiol 0.1 mcg./day 3 days
Method: The following test was carried out to determine if the compounds of this invention could reverse an estrogenic response, when administration of the compound was started after the estrogenic response had become established.
The test animals were immature rats, and all administrations were by subcutaneous injection.
The mean uterine weights of these groups of animals, respectively, were 97.9, 97.3, 119.9 and 112.3 mg.
The animals were sacrificed on the fifth day and their mean uterine weight was 56.4 mg.
The animals were sacrificed on the seventh day and their mean uterine weight was 57.0 mg.

[6] = system: androgen-stimulated prostate growth; experiment: Anti-Androgen Test, adult castrated male rats (ventral prostate weight); type: in vivo; conditions: for Mean Prostate Weight: Experiment A
Method: The antiandrogenic property of the compounds was evaluated in the following tests, in which the compound of Example 3 was used again.
The animals used in this test were adult male rats having a body weight which averaged about 330 g. when the experiment ended. All of the animals to be used in the experiment were castrated by the scrotal route, and were held untreated for 3 days. On the fourth day, subcutaneous administration of 0.1 mg./day of an exogenous androgen, testosterone propionate, was begun, and was continued for seven consecutive days. An untreated control group of animals received injections of 0.1 ml./day of corn oil as a blank treatment. The compound of this invention was administered orally or subcutaneously to the treated animals in 0.1 ml. of corn oil, at the same time that the androgen was administered. The animals were sacrificed 24 hours after the last injection of testosterone propionate, the ventral prostate glands were removed and weighed, and the mean of the weights of each treatment group was reported. The table below reports the mean weights resulting from administration of various doses of the compound along with androgen.
Each treatment group of animals in this experiment consisted of seven to nine animals, except for the untreated control group, which contained twelve animals.

For `O=C(c1ccc(OCCN2CCCCC2)cc1)c1c(-c2ccc(O)cc2)sc2cc(O)ccc12` [Example 3, 6-hydroxy-2-(4-hydroxyphenyl)-3-[4-(2-piperidinoethoxy)benzoyl]benzo[b]thiophene], the “Uterine weight” value ([1]; Experiment A, total dose 3 mg., s.c.) was 33.9 mg, the “Uterine weight” value ([1]; Experiment A, total dose 3 mcg., s.c.) was 47.7 mg and the “Uterine weight” value ([1]; Experiment A, total dose 30 mcg., s.c.) was 38.4 mg. The “Uterine weight” value ([1]; Experiment A, total dose 300 mcg., s.c.) was 35.9 mg, the “Uterine weight” value ([1]; Experiment B, total dose 3 mcg., oral (first line)) was 34.5 mg and the “Uterine weight” value ([1]; Experiment B, total dose 30 mcg., oral) was 34.4 mg. The “Uterine weight” value ([1]; Experiment B, total dose 300 mcg., oral) was 33.2 mg, the “Uterine weight” value ([1]; Experiment B, total dose printed 3 mcg., oral (last line)) was 34.4 mg and the “Uterine weight” value ([2]; total dose 3 mg.) was 14.6 mg. For the same molecule, the “Uterine weight” value ([2]; total dose 0.03 mcg.) was 19.0 mg, the “Uterine weight” value ([2]; total dose 0.3 mcg.) was 19.3 mg and the “Uterine weight” value ([2]; total dose 3 mcg.) was 22.9 mg. The “Uterine weight” value ([2]; total dose 30 mcg.) was 23.9 mg, the “Uterine weight” value ([2]; total dose 300 mcg.) was 19.3 mg and the Uterine weight ([3]; 3 mg.) was 13.9 mg. For the same molecule, the Uterine weight ([3]; 0.03 mcg.) was 41.3 mg, the Uterine weight ([3]; 0.3 mcg.) was 40.6 mg and the Uterine weight ([3]; 3 mcg.) was 26.5 mg. It also gave a Uterine weight ([3]; 30 mcg.) of 18.9 mg, a Uterine weight ([3]; 300 mcg.) of 14.6 mg and a Uterine weight ([4]; Experiment C, 3 mg., oral + estradiol 0.3 mcg., s.c.) of 30.6 mg. It also gave a Uterine weight ([4]; Experiment C, 3 mcg., oral + estradiol 0.3 mcg., s.c.) of 55.0 mg, a Uterine weight ([4]; Experiment C, 30 mcg., oral + estradiol 0.3 mcg., s.c.) of 46.7 mg and a Uterine weight ([4]; Experiment C, 300 mcg., oral + estradiol 0.3 mcg., s.c.) of 31.3 mg. For the same molecule, the Uterine weight ([4]; Experiment D, 3 mg., s.c. + estradiol 0.3 mcg.) was 28.0 mg, the Uterine weight ([4]; Experiment D, 3 mcg., s.c. + estradiol 0.3 mcg.) was 53.6 mg and the Uterine weight ([4]; Experiment D, 30 mcg., s.c. + estradiol 0.3 mcg.) was 33.7 mg. It also gave a Uterine weight ([4]; Experiment D, 300 mcg., s.c. + estradiol 0.3 mcg.) of 30.7 mg, a Uterine weight ([4]; Experiment E, 3 mg., s.c. + estradiol 0.09 mcg.) of 31.0 mg and a Uterine weight ([4]; Experiment E, 3 mcg., s.c. + estradiol 0.09 mcg.) of 42.5 mg. The Uterine weight ([4]; Experiment E, 30 mcg., s.c. + estradiol 0.09 mcg.) was 35.8 mg, the Uterine weight ([4]; Experiment E, 300 mcg., s.c. + estradiol 0.09 mcg.) was 33.7 mg and the Uterine weight ([4]; Experiment F, 3 mg., s.c. + estradiol 0.15 mcg.) was 36.2 mg. It also gave a Uterine weight ([4]; Experiment F, 3 mcg., s.c. + estradiol 0.15 mcg.) of 49.4 mg, a Uterine weight ([4]; Experiment F, 30 mcg., s.c. + estradiol 0.15 mcg.) of 40.9 mg and a Uterine weight ([4]; Experiment F, 300 mcg., s.c. + estradiol 0.15 mcg.) of 36.5 mg. For the same molecule, the Uterine weight ([4]; Experiment G, 3 mg., s.c. + estradiol 3 mcg.) was 30.2 mg, the Uterine weight ([4]; Experiment G, 3 mcg., s.c. + estradiol 3 mcg.) was 71.9 mg and the Uterine weight ([4]; Experiment G, 30 mcg., s.c. + estradiol 3 mcg.) was 42.2 mg. For the same molecule, the Uterine weight ([4]; Experiment G, 300 mcg., s.c. + estradiol 3 mcg.) was 33.7 mg, the Uterine weight ([4]; Experiment H, 3 mg., s.c. + estradiol 30 mcg.) was 33.1 mg and the Uterine weight ([4]; Experiment H, 3 mcg., s.c. + estradiol 30 mcg.) was 92.7 mg. It also gave a Uterine weight ([4]; Experiment H, 30 mcg., s.c. + estradiol 30 mcg.) of 60.2 mg, a Uterine weight ([4]; Experiment H, 300 mcg., s.c. + estradiol 30 mcg.) of 48.9 mg and a mean uterine weight ([5]; then estradiol + 1 mg. compound s.c. on following five days, sacrificed ninth day) of 50.7 mg. For the same molecule, the mean uterine weight ([5]; then estradiol + 1 mg. compound s.c. on following three days, sacrificed seventh day) was 57.0 mg, the mean uterine weight ([5]; then estradiol + 1 mg. compound s.c. on fourth day, sacrificed fifth day) was 56.4 mg and the “Mean Prostate Weight” value ([6]; 0.01 mg./day, S.C. + testosterone propionate 0.1 mg./day) was 253 mg. The “Mean Prostate Weight” value ([6]; 0.01 mg./day, oral + testosterone propionate 0.1 mg./day) was 192 mg, the “Mean Prostate Weight” value ([6]; 0.1 mg./day, S.C. + testosterone propionate 0.1 mg./day) was 235 mg and the “Mean Prostate Weight” value ([6]; 0.1 mg./day, oral + testosterone propionate 0.1 mg./day) was 267 mg. For the same molecule, the “Mean Prostate Weight” value ([6]; 1 mg./day, S.C. + testosterone propionate 0.1 mg./day) was 201 mg, the “Mean Prostate Weight” value ([6]; 1 mg./day, oral + testosterone propionate 0.1 mg./day) was 242 mg and the “effect on androgen-stimulated prostate growth” value ([6]; conclusion in words, Experiments A-C) was “inhibited a large part of the abnormal prostate growth”.
